{"source": "patent US20250197447A1", "about": "“PEPTIDE HAVING ANTI-AGING ACTIVITY, AND USE THEREOF” (CAREGEN CO., LTD., priority 2021, published 2025)", "key": {"[1]": {"test_system": "NIH3T3 cells (mouse fibroblast cell line)", "test": "Intracellular reactive oxygen species (ROS) level after UVA irradiation, DCFH-DA / FACS", "format": "cell-based", "settings": "peptide 10, 50, 100 μM for 1 hour before 8 J/cm^2 UVA, 24 hours culture, FIG. 1", "experimental": "The reactive oxygen species level increases when UV is irradiated. Therefore, it was confirmed whether the reactive oxygen species level decreased again and the aging phenomenon caused by oxidative stress in cells was inhibited when treated with the peptide of the present invention.\n(§1) First, NIH3T3 cells (mouse fibroblast cell line) were seeded in a 6-well plate at a cell density of 5×10^5 cell/well, and then the cells were cultured in DMEM medium containing 10% fetal bovine serum (FBS) for 24 hours. The cultured cells were washed once with serum free DMEM medium, and the peptide of the present invention was mixed in 1 mL of the serum free DMEM medium at each of concentrations of 10, 50, and 100 μM, and then dispensed into the cells. A positive control (PC) was treated with 7.5 mM of N-Acetylcysteine (NaC) instead of the above peptide.\nThe cells were cultured in a CO2 incubator at 37° C. for 1 hour. The medium of the cultured cells was transferred to a tube, 1 ml of PBS was added, and irradiation was performed with 8 J/cm^2 of UVA using a UV irradiator (VILBER LOURMAT, Cat No.: 3102-BSU, France). After removing PBS, 900 μL of the medium transferred to the tube was treated again, and culture was performed in a CO2 incubator at 37° C. for 24 hours. […] After centrifugation, the cells were washed with PBS, and a fluorescence value was measured through FACS."}, "collagen (Col1a1)": {"test_system": "collagen (Col1a1)", "test": "RT-PCR of collagen (Col1a1) mRNA decreased by UV irradiation in fibroblasts", "format": "cell-based, mouse", "settings": "NIH3T3 cells; peptide 10, 50, 100 μM before 6 J/cm^2 UVA; 6 hours culture; FIGS. 2A, 2B", "experimental": "(§2) Expression of collagen, fibronectin, and elastin genes constituting the extracellular matrix (ECM) is inhibited when irradiated with UV. Therefore, it was confirmed whether the photoaging phenomenon of the cells was inhibited by confirming whether the expression levels of collagen, fibronectin, and elastin genes were restored and increased when treated with the peptide of the present invention.\n(§3) First, NIH3T3 cells were seeded in a 6-well plate at a cell density of 5×10^5 cell/well, and then the cells were cultured in DMEM medium containing 10% fetal bovine serum (FBS) for 24 hours. The cultured cells were washed once with serum free DMEM medium, and the peptide of the present invention was mixed in 1 mL of the serum free DMEM medium at each of concentrations of 10, 50, and 100 μM, and dispensed into the cells. A positive control (PC) was treated with 50 μM of Quercetin instead of the above peptide.\n(§4) The cells were cultured in a CO2 incubator at 37° C. for 1 hour. […] The amount of RNA isolated was quantified, 1,000 ng of RNA per tube was added, and reverse transcription into cDNA was performed using a kit (enzynomics, Cat. No.: RT200, Korea), and RT-PCR was performed using a PCR kit (enzynomics, Cat. No.: P581T, Korea). […]"}, "fibronectin": {"test_system": "fibronectin", "test": "RT-PCR of fibronectin mRNA decreased by UV irradiation in fibroblasts", "format": "cell-based, mouse", "settings": "NIH3T3 cells; peptide 10, 50, 100 μM before 6 J/cm^2 UVA; 6 hours culture; FIGS. 2A, 2C", "experimental": "as §2, §3, §4"}, "elastin": {"test_system": "elastin", "test": "RT-PCR of elastin mRNA decreased by UV irradiation in fibroblasts", "format": "cell-based, mouse", "settings": "NIH3T3 cells; peptide 10, 50, 100 μM before 6 J/cm^2 UVA; 6 hours culture; FIGS. 2A, 2D", "experimental": "as §2, §3, §4"}, "[2]": {"test_system": "apoptotic-inducing factors (Cleaved PARP-1, Bax, Cleaved Caspase-3)", "test": "Western blot of apoptotic-inducing factors increased by UV irradiation in NIH3T3 fibroblasts", "format": "cell-based, mouse", "settings": "peptide 10, 50, 100 μM before 6 J/cm^2 UVA, 48 hours culture, FIGS. 3A to 3D", "experimental": "Expression of the apoptotic-inducing factors increases when irradiated with UV. Therefore, it was confirmed whether the photoaging phenomenon of the cells was inhibited and the damaged cells were regenerated by confirming whether the increased expression levels of the apoptotic-inducing factors such as cleaved PARP-1, cleaved Caspase-3, and […] decreased again when treated with the peptide of the present invention.\nas §1, with “NIH3T3 cells were seeded” for “NIH3T3 cells (mouse fibroblast cell line) were seeded”, “μM, and dispensed into” for “μM, and then dispensed into”, “treated with 2.5 mM of” for “treated with 7.5 mM of”\n(§5) The cells were cultured in a CO2 incubator at 37° C. for 1 hour, the medium of the cultured cells was transferred to a tube, 1 mL of PBS was added, and then irradiation was performed with 6 J/cm^2 of UVA using a UV irradiator (VILBER LOURMAT, Cat No.: 3102-BSU, France). After removing PBS, 900 μL of the medium transferred to the tube was added again, and culture was performed in a CO2 incubator at 37° C. for 48 hours. […]"}, "MMP-1 [3]": {"test_system": "MMP-1", "test": "Western blot of MMP-1 increased by UV irradiation in fibroblasts", "format": "cell-based, mouse", "settings": "NIH3T3 cells; peptide 10, 50, 100 μM before 6 J/cm^2 UVA; 48 hours culture; FIGS. 4A, 4B", "experimental": "(§6) The expression of MMP-1 and MMP-2 encoding proteins related to collagen degradation is increased by ultraviolet irradiation. Therefore, it was confirmed whether the synthesis of the MMP-1 and MMP-2 proteins was inhibited again and the cell aging phenomenon was inhibited when treated with the peptide of the present invention.\nas §1, with “NIH3T3 cells were seeded” for “NIH3T3 cells (mouse fibroblast cell line) were seeded”, “μM, and dispensed into” for “μM, and then dispensed into”, “treated with 2.5 mM of” for “treated with 7.5 mM of”\nas §5, with “hour. The” for “hour, the”, “ml” for “mL”, “and” for “and then”, “added,” for “added again,”"}, "MMP-2": {"test_system": "MMP-2", "test": "Gelatin zymography of MMP-2 in culture medium after UV irradiation of fibroblasts", "format": "cell-based, mouse", "settings": "NIH3T3 cells, peptide 10, 50, 100 μM before 6 J/cm^2 UVA, 48 hours culture, FIGS. 4A, 4C", "experimental": "as §6\nas §1, with “NIH3T3 cells were seeded” for “NIH3T3 cells (mouse fibroblast cell line) were seeded”, “μM, and dispensed into” for “μM, and then dispensed into”, “treated with 2.5 mM of” for “treated with 7.5 mM of”\nas §5, with “hour. The” for “hour, the”, “ml” for “mL”, “and” for “and then”, “added,” for “added again,”"}, "MMP-1 [4]": {"test_system": "MMP-1", "test": "Western blot of MMP-1 increased by heat treatment in fibroblasts", "format": "cell-based, mouse", "settings": "NIH3T3 cells; peptide 10, 50, 100 μM for 24 hours before 44° C. for 40 minutes; 8 hours culture; FIGS. 5A, 5B", "experimental": "The expression of MMP-1 encoding proteins related to collagen degradation increases by heat treatment. Therefore, it was confirmed whether the synthesis of the MMP-1 protein was inhibited again and the cell aging phenomenon was inhibited when treated with the peptide of the present invention.\nas §1, with “NIH3T3 cells were seeded” for “NIH3T3 cells (mouse fibroblast cell line) were seeded”, “μM, and dispensed into” for “μM, and then dispensed into”, “treated with 2.5 mM of” for “treated with 7.5 mM of”, “N-Acetylcysteine (NaC) or 2 mM of Glutathione (GSH) instead of” for “N-Acetylcysteine (NaC) instead of”\nThe cells were cultured in a CO2 incubator at 37° C. for 24 hours. A lid and a lower plate of the 6-well plate were sealed with a paraffin film for heat treatment, the lower plate was immersed in a water bath at 44° C., and culture was performed for 40 minutes. After removing the medium, 1 mL of the serum free DMEM medium was added, and culture was performed in a CO2 incubator at 37° C. for 8 hours. Thereafter, the cells were washed twice with PBS, and then a cell lysis buffer was added to obtain a lysate. […]"}}}
{"sequence": "LKKNGSCKRGPRTHYGQK [peptide of the present invention]", "values": [{"measurement": "intracellular reactive oxygen species level increased by ultraviolet irradiation", "setting": "[1]", "value": "decreased"}, {"measurement": "mRNA expression of collagen decreased by UV irradiation", "setting": "collagen (Col1a1)", "value": "increased"}, {"measurement": "mRNA expression of fibronectin decreased by UV irradiation", "setting": "fibronectin", "value": "increased"}, {"measurement": "mRNA expression of elastin decreased by UV irradiation", "setting": "elastin", "value": "increased"}, {"measurement": "expression of the apoptotic-inducing factors increased in the cells damaged by UV irradiation", "setting": "[2]", "value": "decreased"}, {"measurement": "expression and activity of MMP-1 increased by UV irradiation", "setting": "MMP-1 [3]", "value": "inhibited"}, {"measurement": "expression and activity of MMP-2 increased by UV irradiation", "setting": "MMP-2", "value": "inhibited"}, {"measurement": "amount of MMP-1 protein whose expression was increased by heat treatment", "setting": "MMP-1 [4]", "value": "decreased"}]}
